According to patent US6635436B2, “Methods for the screening of non-recombinant cell lines capable of expressing a single PDE4 isoenzyme and for the screening of PDE4 inhibitors” (Warner-Lambert Company, priority 1999, dated 2003):

Assays:
[1] = tested on: PDE4A; experiment: Semi-quantitative RT-PCR of PDE4A expression in treated human cell lines; format: cell-based; details: control normalized to 1
Experimental: (§1) RNA was purified using Tripure™ Isolation Reagent, a single-step liquid phase separation issued from the total RNA isolation method developed by Chomczynski and Sacchi (1987). Washed and pelleted cells were resuspended at a concentration of 1×10^6 cells/ml Tripure and the total RNA extracted was quantified spectrophotometrically. RT-PCR was carried out using the commercial PCR ELISA Dig Labelling Kit. First strand cDNA was generated from 1 μg of total RNA per sample using random hexamers to prime the reverse transcription (First Strand cDNA Synthesis Kit for RT-PCR) and was directly amplified by PCR following the addition of specific primer pairs. Oligonucleotide primers were: PDE4A, 5′-[…]-3′ (SEQ ID N^o1) and 5′-[…]-3′ (SEQ ID N^o2), defining a 439-bp product; PDE4B, 5′-[…]-3′ and 5′-[…]-3′, defining a 327-bp product; PDE4C, 5′-[…]-3′ and 5′-[…]-3′ defining a 331-bp product; PDE4D, 5′-[…]-3′ and 5′-[…]-3′, defining a 339-bp product. The 5′-biotin-labelled capture probes used for the detection of PCR fragments were: 5′-[…]-3′ for PDE4A, 5′-[…]-3′ for PDE4B, 5′-[…]-3′ for PDE4C, 5′-[…]-3′ for PDE4D. Briefly, this PCR ELISA allows the specific detection of PCR products in a semi-quantitative microtiter plate format. The PCR products are labelled with digoxigenin during the amplification process (dig labelling). The labelled PCR products are analyzed by solution hybridization to a specific capture probe that is complementary to the inner part of the amplification product (dig detection). This capture probe is labelled with biotin to allow immobilization of the hybrid to a streptavidin coated microtiterplate surface. Unspecific amplification products will not hybridized to this capture probe and thus will be removed during the following washing steps; The bound hybrid is detected by an anti-digoxigenin peroxidase conjugate and by use of the calorimetric substrate ABTS. In comparison with suitable standards the color signal can be used for semi-quantitative evaluation of an amplification reaction. In our experiments the PDE4 subtypes PCR fragments amplified in the control cells (cells non treated with any of the compound tested), were our standards and the optical densities found for these PCR-fragments were normalized to 1.
(§2) All the cell lines used in this study were obtained from the European Collection of Cell Culture (ECACC). U-937, HT-29, HL-60, Jurkat, MOLT-4, HK-293, CACO2 were grown in RPMI 1640 medium supplemented with 10% (v/v) heat-inactivated calf serum at 37° C. in an humidified atmosphere of 95% air-5% CO2. […] Cells in suspension were seeded at 10^6 cells/ml and adherent ones were used when confluent. After the required incubation times, 10^6 cells were used for mRNA extraction and 2.5×10^8 for proteins extraction.
(§3) The control cells received 1% DMSO for 2 hours or 3 days. After treated, the cells were washed and prepared for mRNA extraction as described in the Materials and Methods section. PCR fragments were quantified by semi-quantitative PCR: The expression of the subtypes in control cells was normalized to 1 to allow expression of the data found in the treated cells as an x-fold increase or decrease expression of each subtype in comparison to the control value.
(§4) The expression of the subtypes in control cells was normalized to 1 to be able to express the data found in the treated cells as an x-fold increase or decrease expression of each subtype in comparison to the control value. The results obtained are summarised in table 2 and here again, none of the treatment used was able to induce the expression of a C subtype.

[2] = tested on: PDE4B; experiment: Semi-quantitative RT-PCR of PDE4B expression in treated human cell lines; format: cell-based; details: control normalized to 1
Experimental: as §1, §2, §3, §4

[3] = tested on: PDE4D; experiment: Semi-quantitative RT-PCR of PDE4D expression in treated human cell lines; format: cell-based; details: control normalized to 1
Experimental: as §1, §2, §3, §4

[4] = tested on: PDE 4D3; experiment: Semi-quantitative RT-PCR of PDE4D3 expression in treated human cell lines; format: cell-based; details: control normalized to 1
Experimental: as §1, §2, §3, §4

[5] = tested on: PDE4; experiment: Chromatographic resolution and assay of PDE activities in control and PMA-treated cells; format: cell-based, human; details: HL-60 cells treated with 1 μM PMA for 72 hours; control cells 0.14
Experimental: as §2
The adherent cells were disrupted by trypsinisation and along with the non-adherent cells were washed carefully at least twice with sterile PBS and counted. […]
Phosphodiesterase activities were assayed using a modification of the method described by Smith et al. (1993) utilizing the observation that 5′-nucleotides bind very strongly to alumina while the cyclic nucleotides are readily eluted at neutral or slightly alkaline pH. […] The separated [^3H]cAMP was back-corrected for recovery using the separated and non-separated ^14C values and expressed as a fraction of the total [^3H]cAMP to give the amount of substrate hydrolyzed.
These studies were conducted originally to set up PDE4 subtype cellular assays, for this reason the cell lines that were expressing either a single or majority of a single subtype after the different treatments, were analysed for their phosphodiesterase activities. […]

Compound	PDE4 subtype A x-fold change in expression vs control (number in brackets) ([1]; CACO-2 cells) [fold]	PDE4 subtype A x-fold change in expression vs control (number in brackets) ([1]; HK-293 cells) [fold]	PDE4 subtype A x-fold change in expression vs control (number in brackets) ([1]; HT-29 cells) [fold]	PDE4 subtype A x-fold change in expression vs control (number in brackets) ([1]; Jurkat cells) [fold]	PDE4 subtype A x-fold change in expression vs control (number in brackets) ([1]; Molt-4 cells) [fold]	PDE4 subtype B x-fold change in expression vs control (number in brackets) ([2]; HK-293 cells) [fold]	PDE4 subtype B x-fold change in expression vs control (number in brackets) ([2]; HL-60 cells) [fold]	PDE4 subtype B x-fold change in expression vs control (number in brackets) ([2]; Jurkat cells) [fold]	PDE4 subtype B x-fold change in expression vs control (number in brackets) ([2]; Molt-4 cells) [fold]	PDE4 subtype D x-fold change in expression vs control (number in brackets) ([3]; HL-60 cells) [fold]	PDE4 subtype D x-fold change in expression vs control (number in brackets) ([3]; HT-29 cells) [fold]	PDE4 subtype D x-fold change in expression vs control (number in brackets) ([3]; Jurkat cells) [fold]	PDE4 subtype D x-fold change in expression vs control (number in brackets) ([3]; Molt-4 cells) [fold]	PDE4 D3 x-fold change in expression vs control (number in brackets) ([4]; CACO-2 cells) [fold]	PDE4 D3 x-fold change in expression vs control (number in brackets) ([4]; HK-293 cells) [fold]	PDE4 D3 x-fold change in expression vs control (number in brackets) ([4]; HT-29 cells) [fold]	other results
CCCCCCCCCCCCCC(=O)O[C@@H]1[C@@H](C)[C@@]2(O)[C@@H](C=C(CO)C[C@]3(O)C(=O)C(C)=C[C@@H]23)[C@@H]2C(C)(C)[C@]12OC(C)=O [PMA, phorbol myristate acetate]	1	1	1.5	1	−1.5	1	−12.2	−2	1	−14.5	1.8	−1.9	1.1	−1.1	1	1	maximum PDE4 activity [5]: 0.9 pmol AMP formed/min/μl
C[C@@H]1C[C@H]2[C@@H]3CCC4=CC(=O)C=C[C@]4(C)[C@@]3(F)[C@@H](O)C[C@]2(C)[C@@]1(O)C(=O)CO [Dexamethasone, dexamethasone]	1	1	1	1	2	−1.5	−1.2	1	1	1	1	1	1.1	1	1	1	PDE4 subtype A x-fold change in expression vs control (number in brackets) ([1]; HL-60 cells): 1 fold; PDE4 subtype A x-fold change in expression vs control (number in brackets) ([1]; Molt-4 cells, listed as dexamethasone): +2 fold; PDE4 subtype D x-fold change in expression vs control (number in brackets) ([3]; CACO-2 cells): 1 fold; PDE4 subtype D x-fold change in expression vs control (number in brackets) ([3]; HK-293 cells): 1 fold; PDE4 D3 x-fold change in expression vs control (number in brackets) ([4]; HL-60 cells): 1 fold
